Measured values: PubChem BioAssay (NCI)
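Test compounds were applied to cells in 96-well plates for 48 hours at 5 doses. TGI is the concentration that stops growth completely.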

Tests used:
Experiment in all cases: NCI-60 cell line screen, 48 h
IGROV1 ovarian = test system: IGROV1 ovarian
SNB-19 CNS = test system: SNB-19 CNS
SNB-78 CNS = test system: SNB-78 CNS
HOP-62 NSCLC = test system: HOP-62 NSCLC
SF-295 CNS = test system: SF-295 CNS
PC-3 prostate = test system: PC-3 prostate
M19-MEL melanoma = test system: M19-MEL melanoma
LXFL 529 NSCLC = test system: LXFL 529 NSCLC
MDA-MB-435 = test system: MDA-MB-435
UACC-257 melanoma = test system: UACC-257 melanoma
HS 578T breast = test system: HS 578T breast
KM12 colon = test system: KM12 colon
HCC-2998 colon = test system: HCC-2998 colon
OVCAR-4 ovarian = test system: OVCAR-4 ovarian
NCI-H460 lung = test system: NCI-H460 lung
HOP-18 NSCLC = test system: HOP-18 NSCLC
HCT-15 colon = test system: HCT-15 colon
SN12C renal = test system: SN12C renal
SK-MEL-2 melanoma = test system: SK-MEL-2 melanoma
T-47D breast = test system: T-47D breast
MALME-3M melanoma = test system: MALME-3M melanoma
MCF7 breast = test system: MCF7 breast
SNB-75 CNS = test system: SNB-75 CNS
NCI-H23 lung = test system: NCI-H23 lung
K-562 leukemia = test system: K-562 leukemia
MDA-MB-231 breast = test system: MDA-MB-231 breast
MOLT-4 leukemia = test system: MOLT-4 leukemia
UO-31 renal = test system: UO-31 renal
EKVX NSCLC = test system: EKVX NSCLC
SR leukemia = test system: SR leukemia
UACC-62 melanoma = test system: UACC-62 melanoma
CAKI-1 renal = test system: CAKI-1 renal
CCRF-CEM leukemia = test system: CCRF-CEM leukemia
OVCAR-8 ovarian = test system: OVCAR-8 ovarian
A549 NSCLC = test system: A549 NSCLC
ACHN renal = test system: ACHN renal
NCI/ADR-RES ovarian = test system: NCI/ADR-RES ovarian
KM20L2 colon = test system: KM20L2 colon
A498 renal = test system: A498 renal
RXF 393 renal = test system: RXF 393 renal
DMS 114 small cell lung = test system: DMS 114 small cell lung
LOX IMVI melanoma = test system: LOX IMVI melanoma
SF-539 CNS = test system: SF-539 CNS
NCI-H226 lung = test system: NCI-H226 lung
HL-60(TB) leukemia = test system: HL-60(TB) leukemia
MDA-N = test system: MDA-N
BT-549 breast = test system: BT-549 breast
SF-268 CNS = test system: SF-268 CNS
HT29 colon = test system: HT29 colon
786-0 renal = test system: 786-0 renal
COLO 205 colon = test system: COLO 205 colon
HOP-92 NSCLC = test system: HOP-92 NSCLC
SK-OV-3 ovarian = test system: SK-OV-3 ovarian
DMS 273 small cell lung = test system: DMS 273 small cell lung
RPMI-8226 leukemia = test system: RPMI-8226 leukemia
M14 melanoma = test system: M14 melanoma
OVCAR-3 ovarian = test system: OVCAR-3 ovarian
OVCAR-5 ovarian = test system: OVCAR-5 ovarian
SW-620 colon = test system: SW-620 colon
DU-145 prostate = test system: DU-145 prostate
U251 CNS = test system: U251 CNS
SK-MEL-28 melanoma = test system: SK-MEL-28 melanoma
SK-MEL-5 melanoma = test system: SK-MEL-5 melanoma
TK-10 renal = test system: TK-10 renal
HCT-116 colon = test system: HCT-116 colon
XF 498 CNS = test system: XF 498 CNS
NCI-H522 lung = test system: NCI-H522 lung
DLD-1 colon = test system: DLD-1 colon

Cc1cc(=O)[nH]c(NN2C(Cl)C(=O)C2c2ccc(Cl)cc2)n1 (centres undefined) gave a TGI (IGROV1 ovarian) of 15.1 µM, a TGI (SNB-19 CNS) of 45.2 µM and a TGI (SNB-78 CNS) of 39 µM. It also gave a TGI (HOP-62 NSCLC) of 48.6 µM, a TGI (SF-295 CNS) of over 100 µM and a TGI (PC-3 prostate) of over 100 µM. For the same compound, the TGI (M19-MEL melanoma) was 35.7 µM, the TGI (LXFL 529 NSCLC) was 19.2 µM and the TGI (MDA-MB-435) was 60 µM. For the same compound, the TGI (UACC-257 melanoma) was over 55.1 µM, the TGI (HS 578T breast) was 93.5 µM and the TGI (KM12 colon) was 16.1 µM. It also gave a TGI (HCC-2998 colon) of 32.1 µM, a TGI (OVCAR-4 ovarian) of over 64.7 µM and a TGI (NCI-H460 lung) of 31.1 µM. It also gave a TGI (HOP-18 NSCLC) of 23.2 µM, a TGI (HCT-15 colon) of over 53.8 µM and a TGI (SN12C renal) of 35.7 µM. For the same compound, the TGI (SK-MEL-2 melanoma) was 46.4 µM, the TGI (T-47D breast) was 43.4 µM and the TGI (MALME-3M melanoma) was 32.3 µM. For the same compound, the TGI (MCF7 breast) was 42.5 µM, the TGI (SNB-75 CNS) was 42.5 µM and the TGI (NCI-H23 lung) was 39.1 µM. It also gave a TGI (K-562 leukemia) of 16.2 µM, a TGI (MDA-MB-231 breast) of 72 µM and a TGI (MOLT-4 leukemia) of 22.7 µM. The TGI (UO-31 renal) was over 60.9 µM, the TGI (EKVX NSCLC) was 35 µM and the TGI (SR leukemia) was 6.22 µM. The TGI (UACC-62 melanoma) was 39.9 µM, the TGI (CAKI-1 renal) was 30.7 µM and the TGI (CCRF-CEM leukemia) was 5.67 µM. For the same compound, the TGI (OVCAR-8 ovarian) was 56.5 µM, the TGI (A549 NSCLC) was over 64.8 µM and the TGI (ACHN renal) was over 56.4 µM. The TGI (NCI/ADR-RES ovarian) was 54.9 µM, the TGI (KM20L2 colon) was 44.5 µM and the TGI (A498 renal) was 53.6 µM. The TGI (RXF 393 renal) was 45.1 µM, the TGI (DMS 114 small cell lung) was 30 µM and the TGI (LOX IMVI melanoma) was 15.1 µM. The TGI (SF-539 CNS) was 33.3 µM, the TGI (NCI-H226 lung) was 42 µM and the TGI (HL-60(TB) leukemia) was 12.7 µM. The TGI (MDA-N) was 72.6 µM, the TGI (BT-549 breast) was 86.9 µM and the TGI (SF-268 CNS) was over 66.2 µM. The TGI (HT29 colon) was 54.9 µM, the TGI (786-0 renal) was 33 µM and the TGI (COLO 205 colon) was 36.2 µM. For the same compound, the TGI (HOP-92 NSCLC) was 27.7 µM, the TGI (SK-OV-3 ovarian) was over 100 µM and the TGI (DMS 273 small cell lung) was 25.9 µM. It also gave a TGI (RPMI-8226 leukemia) of 33.1 µM, a TGI (M14 melanoma) of 28.9 µM and a TGI (OVCAR-3 ovarian) of 30.3 µM. For the same compound, the TGI (OVCAR-5 ovarian) was over 60.4 µM, the TGI (SW-620 colon) was over 71.7 µM and the TGI (DU-145 prostate) was 66.6 µM. It also gave a TGI (U251 CNS) of 52.4 µM, a TGI (SK-MEL-28 melanoma) of 49.6 µM and a TGI (SK-MEL-5 melanoma) of 25.7 µM. The TGI (TK-10 renal) was 48.6 µM and the TGI (HCT-116 colon) was 31.1 µM.

CN(C)CCCNC(=O)N/N=C/c1cccc([N+](=O)[O-])c1 showed a TGI (IGROV1 ovarian) of over 100 µM, a TGI (SNB-19 CNS) of over 100 µM and a TGI (XF 498 CNS) of over 100 µM. For the same compound, the TGI (SNB-78 CNS) was over 100 µM, the TGI (SF-295 CNS) was over 100 µM and the TGI (LXFL 529 NSCLC) was over 100 µM. For the same compound, the TGI (UACC-257 melanoma) was over 100 µM, the TGI (KM12 colon) was over 100 µM and the TGI (OVCAR-4 ovarian) was over 100 µM. For the same compound, the TGI (NCI-H460 lung) was over 100 µM, the TGI (HOP-18 NSCLC) was over 100 µM and the TGI (HCT-15 colon) was over 100 µM. For the same compound, the TGI (SN12C renal) was over 100 µM, the TGI (SK-MEL-2 melanoma) was over 100 µM and the TGI (MALME-3M melanoma) was over 100 µM. The TGI (SNB-75 CNS) was over 100 µM, the TGI (NCI-H23 lung) was over 100 µM and the TGI (K-562 leukemia) was over 100 µM. The TGI (MOLT-4 leukemia) was over 100 µM, the TGI (UACC-62 melanoma) was over 100 µM and the TGI (CCRF-CEM leukemia) was over 100 µM. The TGI (OVCAR-8 ovarian) was over 100 µM, the TGI (A549 NSCLC) was over 100 µM and the TGI (ACHN renal) was over 100 µM. For the same compound, the TGI (RXF 393 renal) was over 100 µM, the TGI (DMS 114 small cell lung) was over 100 µM and the TGI (LOX IMVI melanoma) was over 100 µM. The TGI (SF-539 CNS) was over 100 µM, the TGI (NCI-H226 lung) was over 100 µM and the TGI (SF-268 CNS) was over 100 µM. It also gave a TGI (HT29 colon) of over 100 µM, a TGI (786-0 renal) of over 100 µM and a TGI (NCI-H522 lung) of over 100 µM. The TGI (SK-OV-3 ovarian) was over 100 µM, the TGI (DMS 273 small cell lung) was over 100 µM and the TGI (M14 melanoma) was over 100 µM. For the same compound, the TGI (OVCAR-3 ovarian) was over 100 µM, the TGI (DLD-1 colon) was over 100 µM and the TGI (SW-620 colon) was over 100 µM. For the same compound, the TGI (U251 CNS) was over 100 µM, the TGI (SK-MEL-28 melanoma) was over 100 µM and the TGI (SK-MEL-5 melanoma) was over 100 µM. It also gave a TGI (TK-10 renal) of over 100 µM and a TGI (HCT-116 colon) of over 100 µM.
